Results reported in publication PMC10382584, “Macrocyclization of linear molecules by deep learning to facilitate macrocyclic drug candidates discovery” (Nature Communications, 2023).

Assays:
Test in all cases: biochemical
Set-up in all cases: DiscoveRx KINOMEscan competition binding, percent of DMSO control signal at 100 nM
Conditions in all cases: read-out: Fig. 4a / Percent Control / Compound 1; percent of DMSO control, competition binding
MUSK = MUSK (Homo sapiens, UniProt O15146)
BMX = BMX (Homo sapiens, UniProt P51813)
Sequence of BMX (P51813 whole entry): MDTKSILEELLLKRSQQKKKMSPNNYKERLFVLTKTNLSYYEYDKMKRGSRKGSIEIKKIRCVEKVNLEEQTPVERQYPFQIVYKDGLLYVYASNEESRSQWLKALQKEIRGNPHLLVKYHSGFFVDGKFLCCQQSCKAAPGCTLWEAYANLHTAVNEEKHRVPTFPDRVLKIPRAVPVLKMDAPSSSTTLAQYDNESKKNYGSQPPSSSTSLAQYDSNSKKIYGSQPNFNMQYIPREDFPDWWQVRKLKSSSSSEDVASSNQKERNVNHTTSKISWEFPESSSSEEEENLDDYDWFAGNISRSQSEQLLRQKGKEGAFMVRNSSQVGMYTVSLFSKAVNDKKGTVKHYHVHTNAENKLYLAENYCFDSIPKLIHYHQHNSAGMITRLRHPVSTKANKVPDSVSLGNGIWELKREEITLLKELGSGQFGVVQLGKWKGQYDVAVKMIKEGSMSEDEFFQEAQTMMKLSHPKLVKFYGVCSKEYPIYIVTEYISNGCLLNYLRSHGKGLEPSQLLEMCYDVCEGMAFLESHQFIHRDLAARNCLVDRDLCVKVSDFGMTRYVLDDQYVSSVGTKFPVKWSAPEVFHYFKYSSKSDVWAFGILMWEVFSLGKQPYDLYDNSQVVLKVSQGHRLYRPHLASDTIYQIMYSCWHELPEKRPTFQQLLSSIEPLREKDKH

[1] = biological target: T1, RSK4(Kin.Dom.2-C-terminal) (Homo sapiens, UniProt Q9UK32)
T1 construct: gene RPS6KA6; Kin.Dom.2-C-terminal
T1 sequence (Q9UK32 whole entry): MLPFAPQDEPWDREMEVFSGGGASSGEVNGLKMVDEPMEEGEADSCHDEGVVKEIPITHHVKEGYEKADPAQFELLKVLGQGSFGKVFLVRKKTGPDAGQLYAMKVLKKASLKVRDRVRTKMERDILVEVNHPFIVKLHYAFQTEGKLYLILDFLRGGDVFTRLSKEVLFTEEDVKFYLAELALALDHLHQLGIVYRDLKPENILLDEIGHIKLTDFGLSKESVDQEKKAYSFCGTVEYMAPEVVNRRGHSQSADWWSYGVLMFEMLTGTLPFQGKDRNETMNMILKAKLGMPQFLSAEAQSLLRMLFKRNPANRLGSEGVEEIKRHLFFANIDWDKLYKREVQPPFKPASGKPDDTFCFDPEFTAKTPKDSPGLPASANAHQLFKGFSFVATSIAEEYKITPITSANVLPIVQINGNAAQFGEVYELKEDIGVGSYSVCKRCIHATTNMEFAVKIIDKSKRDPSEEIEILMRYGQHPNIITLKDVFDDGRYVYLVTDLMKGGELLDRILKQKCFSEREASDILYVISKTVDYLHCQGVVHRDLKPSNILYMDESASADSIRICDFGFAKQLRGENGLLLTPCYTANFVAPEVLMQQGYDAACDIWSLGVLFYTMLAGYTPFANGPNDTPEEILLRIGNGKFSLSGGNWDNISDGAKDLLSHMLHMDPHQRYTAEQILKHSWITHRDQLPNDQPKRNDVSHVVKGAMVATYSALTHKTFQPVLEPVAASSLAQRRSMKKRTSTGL

[2] = biological target: T2, ABL1(T315I)-phosphorylated (Homo sapiens, UniProt P00519, T315I)
T2 construct: phosphorylated

YANK1 = biological target: T3, YANK1 (Homo sapiens, UniProt Q8WU08)
T3 construct: gene STK32A
T3 sequence (Q8WU08 whole entry): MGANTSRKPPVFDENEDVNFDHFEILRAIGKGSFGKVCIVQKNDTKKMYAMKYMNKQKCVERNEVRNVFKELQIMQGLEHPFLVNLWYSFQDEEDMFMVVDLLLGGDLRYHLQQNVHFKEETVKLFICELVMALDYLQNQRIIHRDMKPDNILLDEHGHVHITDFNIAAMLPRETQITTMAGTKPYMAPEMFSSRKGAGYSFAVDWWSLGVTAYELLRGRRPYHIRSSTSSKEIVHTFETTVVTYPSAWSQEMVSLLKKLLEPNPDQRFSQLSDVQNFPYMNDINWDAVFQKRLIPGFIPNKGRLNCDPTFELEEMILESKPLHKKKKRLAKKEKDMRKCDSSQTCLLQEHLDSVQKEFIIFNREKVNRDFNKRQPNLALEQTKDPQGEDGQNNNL

HASPIN = HASPIN (Homo sapiens, UniProt Q8TF76)
OSR1 = biological target: T4, OSR1 (Homo sapiens, UniProt O95747)
T4 construct: gene OXSR1

CAMK4 = CAMK4 (Homo sapiens, UniProt Q16566)
AKT2 = AKT2 (Homo sapiens, UniProt P31751)
SRPK3 = SRPK3 (Homo sapiens, UniProt Q9UPE1)
NEK4 = NEK4 (Homo sapiens, UniProt P51957)
GRK1 = GRK1 (Homo sapiens, UniProt Q15835)
KIT(L576P) = KIT(L576P) (Homo sapiens, UniProt P10721, L576P)
PRKX = PRKX (Homo sapiens, UniProt P51817)
PDPK1 = PDPK1 (Homo sapiens, UniProt O15530)
ALK(L1196M) = ALK(L1196M) (Homo sapiens, UniProt Q9UM73, L1196M)
ERK3 = biological target: T5, ERK3 (Homo sapiens, UniProt Q16659)
T5 construct: gene MAPK6

LRRK2 = LRRK2 (Homo sapiens, UniProt Q5S007)
Sequence of LRRK2 (Q5S007 whole entry): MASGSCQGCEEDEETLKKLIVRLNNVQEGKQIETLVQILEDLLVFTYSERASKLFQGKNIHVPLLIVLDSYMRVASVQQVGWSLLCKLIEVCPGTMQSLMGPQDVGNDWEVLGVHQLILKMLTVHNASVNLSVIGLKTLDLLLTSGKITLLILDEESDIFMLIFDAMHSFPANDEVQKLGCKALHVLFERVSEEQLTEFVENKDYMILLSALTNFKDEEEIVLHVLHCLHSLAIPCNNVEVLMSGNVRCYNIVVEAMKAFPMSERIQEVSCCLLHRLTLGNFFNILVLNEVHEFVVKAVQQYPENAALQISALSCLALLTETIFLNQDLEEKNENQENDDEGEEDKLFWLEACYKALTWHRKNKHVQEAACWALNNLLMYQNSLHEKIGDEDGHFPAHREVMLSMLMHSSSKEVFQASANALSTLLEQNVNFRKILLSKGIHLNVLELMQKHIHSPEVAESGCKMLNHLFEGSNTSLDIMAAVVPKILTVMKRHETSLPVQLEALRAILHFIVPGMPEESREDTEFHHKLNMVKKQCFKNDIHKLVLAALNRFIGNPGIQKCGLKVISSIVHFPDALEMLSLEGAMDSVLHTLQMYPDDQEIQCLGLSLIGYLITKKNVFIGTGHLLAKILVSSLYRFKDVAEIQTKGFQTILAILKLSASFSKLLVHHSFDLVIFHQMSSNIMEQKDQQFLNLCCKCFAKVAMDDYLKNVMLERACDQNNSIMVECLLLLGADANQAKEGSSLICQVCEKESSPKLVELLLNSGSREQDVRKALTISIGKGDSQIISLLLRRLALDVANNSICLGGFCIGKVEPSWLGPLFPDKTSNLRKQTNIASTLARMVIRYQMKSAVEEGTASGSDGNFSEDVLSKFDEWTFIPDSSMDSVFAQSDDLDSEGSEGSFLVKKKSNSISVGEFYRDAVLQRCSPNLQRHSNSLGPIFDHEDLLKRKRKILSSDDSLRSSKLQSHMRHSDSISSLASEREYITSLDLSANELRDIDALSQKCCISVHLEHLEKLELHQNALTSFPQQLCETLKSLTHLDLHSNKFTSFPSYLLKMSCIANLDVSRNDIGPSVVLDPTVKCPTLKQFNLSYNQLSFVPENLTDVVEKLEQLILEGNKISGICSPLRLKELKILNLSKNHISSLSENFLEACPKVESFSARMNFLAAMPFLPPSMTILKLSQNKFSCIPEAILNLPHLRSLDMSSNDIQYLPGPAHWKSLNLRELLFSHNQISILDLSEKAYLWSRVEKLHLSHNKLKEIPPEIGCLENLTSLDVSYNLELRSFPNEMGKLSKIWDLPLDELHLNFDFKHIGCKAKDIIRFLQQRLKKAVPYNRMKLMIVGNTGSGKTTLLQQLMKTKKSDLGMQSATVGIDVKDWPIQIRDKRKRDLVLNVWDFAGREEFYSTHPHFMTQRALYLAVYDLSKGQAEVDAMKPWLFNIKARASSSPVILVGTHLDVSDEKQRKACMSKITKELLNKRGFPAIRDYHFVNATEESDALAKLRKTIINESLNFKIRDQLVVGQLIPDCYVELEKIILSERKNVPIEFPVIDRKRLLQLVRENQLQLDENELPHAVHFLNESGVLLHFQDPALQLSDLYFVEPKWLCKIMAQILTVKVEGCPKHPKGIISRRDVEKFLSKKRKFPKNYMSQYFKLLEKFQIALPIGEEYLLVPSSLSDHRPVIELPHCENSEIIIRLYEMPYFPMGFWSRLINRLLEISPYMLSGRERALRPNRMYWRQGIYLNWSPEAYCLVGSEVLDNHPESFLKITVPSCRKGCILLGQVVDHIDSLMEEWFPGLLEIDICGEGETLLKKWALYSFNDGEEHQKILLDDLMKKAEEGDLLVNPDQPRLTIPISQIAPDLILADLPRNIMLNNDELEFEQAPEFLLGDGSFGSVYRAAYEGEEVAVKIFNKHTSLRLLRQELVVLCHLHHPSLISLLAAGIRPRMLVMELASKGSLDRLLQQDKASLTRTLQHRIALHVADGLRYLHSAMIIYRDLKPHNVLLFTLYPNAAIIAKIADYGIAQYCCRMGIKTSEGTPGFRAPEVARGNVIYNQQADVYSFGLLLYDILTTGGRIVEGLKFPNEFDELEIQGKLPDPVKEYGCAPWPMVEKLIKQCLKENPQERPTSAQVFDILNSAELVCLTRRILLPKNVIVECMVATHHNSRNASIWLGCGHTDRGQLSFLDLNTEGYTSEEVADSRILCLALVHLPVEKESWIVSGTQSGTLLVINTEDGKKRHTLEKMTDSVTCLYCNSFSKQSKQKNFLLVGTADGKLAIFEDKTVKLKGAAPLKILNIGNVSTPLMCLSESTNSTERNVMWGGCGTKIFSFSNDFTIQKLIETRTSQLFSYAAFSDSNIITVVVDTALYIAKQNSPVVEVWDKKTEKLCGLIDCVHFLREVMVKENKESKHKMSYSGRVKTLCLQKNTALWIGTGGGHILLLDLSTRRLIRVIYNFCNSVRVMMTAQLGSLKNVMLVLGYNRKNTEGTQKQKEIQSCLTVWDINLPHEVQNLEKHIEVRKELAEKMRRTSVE

MAP3K4 = MAP3K4 (Homo sapiens, UniProt Q9Y6R4)
CAMKK2 = CAMKK2 (Homo sapiens, UniProt Q96RR4)
ITK = ITK (Homo sapiens, UniProt Q08881)
WNK2 = WNK2 (Homo sapiens, UniProt Q9Y3S1)
PAK3 = PAK3 (Homo sapiens, UniProt O75914)
JNK3 = biological target: T6, JNK3 (Homo sapiens, UniProt P53779)
T6 construct: gene MAPK10
T6 sequence (P53779 whole entry): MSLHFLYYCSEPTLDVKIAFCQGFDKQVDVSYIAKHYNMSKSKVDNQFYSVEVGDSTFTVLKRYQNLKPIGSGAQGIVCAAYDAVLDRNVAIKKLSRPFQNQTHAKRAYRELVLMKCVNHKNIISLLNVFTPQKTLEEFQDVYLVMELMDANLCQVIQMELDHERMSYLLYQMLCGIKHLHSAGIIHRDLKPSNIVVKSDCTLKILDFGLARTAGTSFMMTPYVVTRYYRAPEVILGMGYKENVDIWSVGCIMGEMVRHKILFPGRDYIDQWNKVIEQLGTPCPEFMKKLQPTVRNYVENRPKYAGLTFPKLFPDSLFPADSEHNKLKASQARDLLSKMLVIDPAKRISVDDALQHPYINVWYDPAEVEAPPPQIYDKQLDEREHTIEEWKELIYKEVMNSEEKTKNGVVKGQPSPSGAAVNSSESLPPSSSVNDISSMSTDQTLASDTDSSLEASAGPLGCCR

ABL1-phosphorylated = biological target: T7, ABL1-phosphorylated (Homo sapiens, UniProt P00519)
T7 construct: phosphorylated
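Also: KINOMEscan kinase panel binding assay, signal normalized between DMSO as 100% and a positive control compound as 0%.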

Compound `Cc1cnc2nc1Nc1cccc(c1)COCc1cc(ccc1OCCN1CCCC1)N2` [Compound 1] has a remaining binding at 0.1 µM (MUSK) of 90%, a remaining binding at 0.1 µM (BMX) of 93% and a remaining binding at 0.1 µM [1] of 96%. It also gave a remaining binding at 0.1 µM [2] of 49%, a remaining binding at 0.1 µM (YANK1) of 73% and a remaining binding at 0.1 µM (HASPIN) of 79%. It also gave a remaining binding at 0.1 µM (OSR1) of 66%, a remaining binding at 0.1 µM (CAMK4) of 100% and a remaining binding at 0.1 µM (AKT2) of 89%. The remaining binding at 0.1 µM (SRPK3) was 82%, the remaining binding at 0.1 µM (NEK4) was 79% and the remaining binding at 0.1 µM (GRK1) was 77%. The remaining binding at 0.1 µM (KIT(L576P)) was 14%, the remaining binding at 0.1 µM (PRKX) was 76% and the remaining binding at 0.1 µM (PDPK1) was 98%. For the same compound, the remaining binding at 0.1 µM (ALK(L1196M)) was 60%, the remaining binding at 0.1 µM (ERK3) was 82% and the remaining binding at 0.1 µM (LRRK2) was 85%. For the same compound, the remaining binding at 0.1 µM (MAP3K4) was 100%, the remaining binding at 0.1 µM (CAMKK2) was 96% and the remaining binding at 0.1 µM (ITK) was 93%. For the same compound, the remaining binding at 0.1 µM (WNK2) was 100%, the remaining binding at 0.1 µM (PAK3) was 100% and the remaining binding at 0.1 µM (JNK3) was 43%. For the same compound, the remaining binding at 0.1 µM (ABL1-phosphorylated) was 90%.
